# Experimental data taken from patent EP3086659B1, “NUTRITIONAL COMPOSITION FOR THE PREVENTION AND TREATMENT OF COPD AND RELATED SYMPTOMS” (Thompson S.r.L., priority 2013, dated 2015).
# Where two headings read alike, the source gives them in different places.
# Key:
# [1] = test system: glutathione reductase (GRX); assay: Glutathione reductase (GRX) mRNA expression by quantitative real-time PCR compared to GAPDH; format: cell-based, Human; details: 15 µM, 6 h
# Description: (§1) Curcumin (CUR), N-acetyl-L-cysteine (NAC) and glutathione in reduced (GSH) and oxidised (GSSG) form and other reagents were supplied by Sigma. Human alveolar epithelial cells A549 were purchased from American Type Culture Collection (ATCC CCL-185). […] GRX is a key enzyme in the regulation of the cellular oxidative state, being responsible for the regeneration of GSH from GSSG and in the regeneration of dehydroascorbate.
# [2] = test system: Human alveolar epithelial cells A549; assay: Determination of intracellular glutathione (GSH and GSSG), glutathione reductase-recycling analysis; format: cell-based; details: different concentrations (0-50 µM), 6 hours
# Method: Curcumin (CUR), N-acetyl-L-cysteine (NAC) and glutathione in reduced (GSH) and oxidised (GSSG) form and other reagents were supplied by Sigma. Human alveolar epithelial cells A549 were purchased from American Type Culture Collection (ATCC CCL-185). Levels of reduced (GSH) and oxidised (GSSG) Glutathione were measured after exposure of the cells for 6 hours to curcumin, NAC and curcumin and NAC association (ratio 1/1) using the method already described in Calabrese et al. 1998; Motterlini et al. 2000a). Cells harvested in cold PBS were frozen-thawed three times and an aliquot of this suspension was added to a buffer solution containing […] of EDTA and 10 mM of 5,5-dithiobis- (2-nitrobenzoic acid). The total glutathione was measured by spectroscopy (optical density of 412 nm) using the glutathione reductase-recycling analysis. In order to determine the quantity of GSSG, an aliquot of the cell suspension was added to an equal volume of buffer containing EDTA and N-ethylmaleimide (10 mM). The sample was mixed and centrifuged and the supernatant was passed through a Sep-Pak C18 cartridge (Waters, Milford, MA) to remove the excess of N-ethylmaleimide. […] Intracellular glutathione was determined by comparison with a standard curve obtained with standard solutions of GSH and GSSG and was expressed as nmoles/mg protein. […]
# [3] = test system: Nrf2; assay: Nrf2 mRNA expression by quantitative real-time PCR compared to GAPDH; format: cell-based, Human; details: 15 µM, 6 h
# Description: as §1
# [4] = test system: HO-1; assay: HO-1 mRNA expression by quantitative real-time PCR compared to GAPDH; format: cell-based, Human; details: 15 µM, 6 h
# Description: as §1
# [5] = test system: Nrf2; assay: Expression of Nrf2 protein in nuclear extracts (Western blot); format: cell-based, Human; details: 15 µM, after one hour up to 12h, three independent Western blots
# Description: Curcumin (CUR), N-acetyl-L-cysteine (NAC) and glutathione in reduced (GSH) and oxidised (GSSG) form and other reagents were supplied by Sigma. Human alveolar epithelial cells A549 were purchased from American Type Culture Collection (ATCC CCL-185). […] The combination of NAC and CUR induced a slightly higher level of Nrf2 expression.
# [6] = Clinical study on volunteers: blood (serum) concentration and pharmacokinetic parameters of curcumin after oral administration; format: in vivo, healthy volunteers
# Method: Subsequently, up to 1 h, a rapid decrease is observed followed by a gradual decline to 0 in the next three hours. The following Table lists the pharmacokinetic parameters (mean ± SEM). Table
# The maximum serum concentration, when administered alone, was just 0.006 µg/ml 1 hour after administration, while in combination with piperine, the maximum serum concentration (Cmax) had increased to 0.18 µg/ml and was reached earlier at 0.75 h from the administration. The volume of distribution (Vd) and the total clearance value (CI) were not calculated for curcumin administered alone as it was not possible to determine the serum levels in most of the measurements of the greater number of subjects. […] 4 and in the preceding table reflect an increase in the bioavailability of curcumin equal to 2000% in the subjects treated with the combination of curcumin and piperine.
SMILES,glutathione reductase (GRX) mRNA [1],levels of GSSG [2],intracellular GSH ([2]; dose-dependent),Nrf2 mRNA [3],HO-1 mRNA [4],expression of the protein Nrf2 in the nucleic extracts [5],"Tmax ([6]; human, 2 g, serum curcumin, oral administration, healthy volunteers (n = 8), mean ± SEM) [h]","Cmax ([6]; human, 2 g, serum curcumin, oral administration, healthy volunteers (n = 8), mean ± SEM, read-out: Cmax) [ng/mL]","Serum levels of curcumin ([6]; oral, 2 g of curcumin alone or with 20 mg of piperine, measurements up to 0.75 h)","Cmax ([6]; serum curcumin, oral administration, healthy volunteers (n = 8), mean ± SEM) [ng/mL]","AUC(0-∞) ([6]; serum curcumin, oral administration, healthy volunteers (n = 8), trapezoidal method, mean ± SEM) [µg/h/mL]"
"CC(=O)N[C@@H](CS)C(=O)O [NAC, N-acetyl-L-cysteine]",able to induce GRX significantly,did not increase,increase of GSH,not active,not active,not able to induce an increase,,,,,
"COc1cc(/C=C/C(=O)CC(=O)/C=C/c2ccc(O)c(OC)c2)ccc1O [Curcumin, (1E, 6E)-1,7-bis-(4-hydroxy-3-methoxyphenyl)-epta-1,6-dien-3,5-dione]",,,,,,,1,6,very low or undetectable,6 ± 5,0.004
